Laboratory results published in article PMC10280131 (RSC Advances, 2023).
Marks after values point to notes of the source that are not given here.

What was measured:
[1] = target: Acetylcholinesterase (AChE) (Homo sapiens, UniProt P22303); experiment: Acetylcholinesterase inhibition screening; assay type: biochemical
[2] = Antioxidant assay by DPPH scavenging
Bax gene = Bax gene expression in brain samples of AD induced rats; assay type: in vivo, rat; conditions: AD rats treated vs AD rats
male Wistar rats = assay type: in vivo, rat
Bcl-2 gene = Bcl-2 gene expression in brain samples of AD induced rats; assay type: in vivo, rat; conditions: AD rats treated vs AD rats
[3] = system: brain tissue of AD-induced rats; experiment: Brain oxidative stress markers; assay type: in vivo, rat
[4] = system: liver, kidneys, heart, and brain; experiment: Histopathological examination of chronic toxicity study; assay type: in vivo, mice; conditions: H&E
AD-induced rats = experiment: T-maze test in AlCl3-induced AD rats; assay type: in vivo, rat; conditions: Treatment 4 weeks; for T-maze test, time taken to reach food: seconds, n = 10
Wistar rats = experiment: Acute toxicity, oral, rats
Tau gene = Tau gene expression in brain samples of AD induced rats; assay type: in vivo, rat; conditions: AD rats treated vs AD rats
[5] = system: Alzheimer's disease-induced rats; experiment: Beam balance test in AlCl3-induced AD rats; assay type: in vivo, rat; conditions: Treatment 4 weeks
[6] = male rats, 10 mg per kg body weight
[7] = male rats, 10 mg per kg body weight, one month

Sequence of Acetylcholinesterase (AChE) (P22303 32-614, species assumed): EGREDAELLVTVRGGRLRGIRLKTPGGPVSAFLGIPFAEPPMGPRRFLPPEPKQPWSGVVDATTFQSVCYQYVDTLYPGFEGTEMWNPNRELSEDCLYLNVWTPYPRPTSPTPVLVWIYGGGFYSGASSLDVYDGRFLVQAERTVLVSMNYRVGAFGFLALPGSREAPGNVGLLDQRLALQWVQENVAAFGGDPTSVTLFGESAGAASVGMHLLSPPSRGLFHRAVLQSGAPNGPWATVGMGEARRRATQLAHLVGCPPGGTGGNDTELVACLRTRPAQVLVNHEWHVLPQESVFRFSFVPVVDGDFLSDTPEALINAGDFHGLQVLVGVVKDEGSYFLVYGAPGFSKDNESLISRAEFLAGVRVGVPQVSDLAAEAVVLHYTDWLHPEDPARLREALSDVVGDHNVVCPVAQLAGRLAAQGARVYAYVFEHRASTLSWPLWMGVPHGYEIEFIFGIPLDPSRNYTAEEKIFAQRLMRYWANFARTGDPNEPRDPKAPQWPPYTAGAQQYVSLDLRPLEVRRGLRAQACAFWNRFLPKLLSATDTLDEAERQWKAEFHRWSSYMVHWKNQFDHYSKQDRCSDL

Compound: Cc1cc(=O)oc2cc(OCC(=O)NN=C3CCCc4ccccc43)ccc12 [Compound 4a, N′-(3,4-dihydronaphthalen-1(2H)-ylidene)-2-((4-methyl-2-oxo-2H-chromen-7-yl)oxy)acetohydrazide]
- IC50 [1]: 13.1 µM
- Percent of antioxidant activity (DPPH scavenging) ([2]; Concentration (0.01 mg)): 31.8 ± 0.2%
- Percent of antioxidant activity (DPPH scavenging) ([2]; Concentration (0.05 mg)): 40.9 ± 3.1%

Compound: Cc1cc(=O)oc2cc(OCC(=O)NN=C3CCc4ccccc43)ccc12 [Compound 4c, N′-(2,3-Dihydro-1H-inden-1-ylidene)-2-((4-methyl-2-oxo-2H-chromen-7-yl)oxy)acetohydrazide]
- Expression of Bax gene (Bax gene): reduced expression
- Signs of chronic toxicity (male Wistar rats; 10 mg per kg b.wt orally, male Wistar rats, one month): didn't see any indication of harmfulness
- Change in blood profile levels vs control rats (male Wistar rats; 10 mg per kg b.wt, one month): insignificant changes
- Change in creatinine level vs untreated group (male Wistar rats; 10 mg per kg b.wt, one month): significant increase
- Change in hepatic enzyme levels (AST, ALT, and ALP) vs control group (male Wistar rats; 10 mg per kg b.wt, one month): insignificant difference
- Change in total urea level vs untreated group (male Wistar rats; 10 mg per kg b.wt, one month): insignificant change
- ALP (male Wistar rats; [6]): 136.00 ± 9.00 ^a U/l
- ALT (male Wistar rats; [6]): 79.00 ± 4.40 ^a U/l
- AST (male Wistar rats; [6]): 32.00 ± 1.20 ^a U/l
- Creatinine (male Wistar rats; [6]): 2.80 ± 0.07 mg/dL
- Urea (male Wistar rats; [6]): 20.00 ± 1.57 mg/dL
- Haematocrit (male Wistar rats; [7]): 45.00 ± 1.87 ^a %
- Hemoglobin (Hb) (male Wistar rats; [7]): 14.58 ± 0.59 ^a g L^−1
- Lymphocyte (male Wistar rats; [7]): 7.62 ± 0.66 ^a 10^3 cm^−1
- MPV (male Wistar rats; [7]): 8.66 ± 0.19 ^a fL
- Mean corpuscular hemoglobin (MCH) (male Wistar rats; [7]): 17.78 ± 0.88 ^a pg
- Mean corpuscular hemoglobin concentration (MCHC) (male Wistar rats; [7]): 33.98 ± 0.25 ^a g dL^−1
- Mean corpuscular volume (MCV) (male Wistar rats; [7]): 59.00 ± 0.03 ^a fL
- Monocyte (male Wistar rats; [7]): 1.93 ± 0.06 ^a 10^3 cm^−1
- Neutrophils (male Wistar rats; [7]): 2.39 ± 0.09 ^a 10^3 cm^−1
- Platelets (male Wistar rats; [7]): 465.00 ± 12.00 ^a 10^3 mm^−1
- RDW-CV (male Wistar rats; [7]): 15.80 ± 0.19 ^a %
- Red blood cells (RBCs) (male Wistar rats; [7]): 8.00 ± 0.08 ^a million cells per mm
- White blood cells WBCs (male Wistar rats; [7]): 10.89 ± 1.90 ^a 10^3 cmm^−1
- Expression of Bcl-2 gene (Bcl-2 gene): improved expression
- GSH % improvement ([3]; AD-induced rats): 27.17%
- MDA % improvement ([3]; AD-induced rats): 90.64%
- GSH ([3]; AD-induced rats, n = 8): 21.66 ± 1.21 mg per g tissues
- MDA ([3]; AD-induced rats, n = 8): 22.43 ± 1.66 mg per g tissues
- GSH % change to disease ([3]; vs AD group): 59.26%
- MDA % change to disease ([3]; vs AD group): 32.19%
- Heart and brain histopathology [4]: no histopathological damage
- Kidney histopathology [4]: no histopathological alterations
- Liver histopathology [4]: slight Kupffer cell proliferation
- T-maze test, % improvement (AD-induced rats): 148.37%
- T-maze test, time taken to reach food (AD-induced rats): 28.20 ± 1.80 Sc
- Mortality (Wistar rats; 50 mg per kg b.wt, rats): No mortality
- Mortality (Wistar rats; 100 mg per kg b.wt, post 24 h, one rat of 4): 25%
- Expression of Tau gene (Tau gene): reduced expression
- IC50 [1]: 2.21 µM
- Percent of antioxidant activity (DPPH scavenging) ([2]; Concentration (0.01 mg)): 28.00 ± 0.4%
- Percent of antioxidant activity (DPPH scavenging) ([2]; Concentration (0.05 mg)): 57.14 ± 2.77%
- Beam balance test time [5]: 8.99 ± 1.00 Sc
- Beam balance test, % improvement [5]: 60.00%

Compound: Cc1cc(=O)oc2cc(OCC(=O)NN=C3C(=O)Nc4ccccc43)ccc12 [Compound 4b, 2-((4-Methyl-2-oxo-2H-chromen-7-yl)oxy)-N′-(2-oxoindolin-3-ylidene) acetohydrazide]
- IC50 [1]: 20.9 µM
- Percent of antioxidant activity (DPPH scavenging) ([2]; Concentration (0.01 mg)): 31.8 ± 1.2%
- Percent of antioxidant activity (DPPH scavenging) ([2]; Concentration (0.05 mg)): 35.00 ± 1.00%

Compound: COc1cc2c(cc1OC)C(=O)C(CC1CCN(Cc3ccccc3)CC1)C2 (centres unmarked) [Donepezil, reference compound]
- T-maze test, % improvement (AD-induced rats): 181.70%
- T-maze test, time taken to reach food (AD-induced rats): 23.10 ± 1.70 Sc
- Beam balance test time [5]: 9.80 ± 0.88 Sc
- Beam balance test, % improvement [5]: 67.98%

Compound: O=C1O[C@H]([C@@H](O)CO)C(O)=C1O [Vitamin C, ascorbic acid, reference compound]
- Percent of antioxidant activity (DPPH scavenging) ([2]; Concentration (0.01 mg)): 80.00 ± 5.00%
- Percent of antioxidant activity (DPPH scavenging) ([2]; Concentration (0.05 mg)): 89.00 ± 6.99%

Compound: Cc1cc(=O)oc2cc(OCC(=O)NN=Cc3ccc(C(=O)O)cc3)ccc12 [Compound 4d, 4-((2-(2-((4-Methyl-2-oxo-2H-chromen-7-yl)oxy)acetyl) hydrazineylidene)methyl) benzoic acid]
- IC50 [1]: 3.15 µM
- Percent of antioxidant activity (DPPH scavenging) ([2]; Concentration (0.01 mg)): 4.5 ± 0.4%
- Percent of antioxidant activity (DPPH scavenging) ([2]; Concentration (0.05 mg)): 10.3 ± 0.33%
